The text below walks through data of paper PMC7070709, “Design, Synthesis, and In Vitro Evaluation of Hydroxybenzimidazole-Donepezil Analogues as Multitarget-Directed Ligands for the Treatment of Alzheimer’s Disease” (Molecules, 2020).

Like-named read-outs stand apart in the source and are kept apart here.

The target of one data set is Aβ1–42 with Cu(II) (Homo sapiens, UniProt P05067). Nature of the data set: Inhibition of Cu-induced Aβ1–42 aggregation (thioflavin T fluorescence). The format is biochemical. The following applies: copper 40 µM, Aβ1–42 40 μM, 24 h, 37 °C; for inhibition at 40 µM: inhibitor 40 µM. As to the method: (§1) The anti-amyloidogenic capacity of the compounds was also evaluated in vitro, in the absence and presence of Cu(II), based on the measurement of the fluorescence emission of Thioflavin T (ThT), a stain known by its Aβ fibril binding capacity. This binding interaction can be analyzed by fluorimetry, since the presence of ThT-fibrils increases the absorbance and the emission of the ThT dye, and it also induces red shifts on the absorbance (from 385 to 446 nm) and emission peaks (from 445 to 485 nm). All the measurements were performed after incubation (24 h, 37 °C) of the self-mediated and Cu^2+-induced Aβ aggregates in the presence/absence of the compounds under evaluation.
Chain of Aβ1–42 with Cu(II) (P05067 672-713): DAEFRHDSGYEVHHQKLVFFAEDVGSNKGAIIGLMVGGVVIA
(§2) Herein, due to solubility problems of some compounds in the phosphate buffer (0.215 M, pH 8.0) of the working medium, the assays were carried out in the presence of 40 μM concentration of inhibitor and 20 μM in the case of compound 4, instead of 80 μM as previously reported. […] The activity dependence on ligand structural features may be mainly explained by the different ability for intercalation into the fibrils, as already assumed for other inhibitors. […] The data obtained for compounds 6 and 7 indicate that the presence of R1 = F, -NO2 substituents in the BIM have some small positive effect on the inhibition of Aβ aggregation.
(§3) The Aβ peptide was treated with 1,1,1,3,3,3-hexafluoropropan-2-ol (HFIP) and dissolved in a CH3CN/Na2CO3 (300 μM)/NaOH (250 μM) (48.3:48.3:4.3, v/v/v) mixture in order to have a stable stock solution, avoiding self-aggregation of Aβ1–42. Then, the prepared 500 μM solution was diluted at 40 μM in phosphate buffer (0.215 M, pH 8.0).
(§4) The solutions of the tested compounds were prepared in MeOH (1 mg/mL), being further diluted in phosphate buffer to a concentration of 480 μM. For copper-induced aggregation studies, a solution of CuCl2 240 μM was prepared from a stock standard solution (0.015 M). To perform the assays for the Aβ1–42 aggregation inhibition, a reported method, based on the fluorescence emission of thioflavin T (ThT), was followed. Aβ1–42 (40 μM) was incubated at 37 °C, for 24 h with or without Cu(II) (40 μM) in a phosphate buffer in presence or absence of the single ligand (40 μM and 20 μM for compound 4). Then, the samples were added to a 96-well plate with […] of 5 μM ThT in 50 mM glycine-NaOH (pH 8.5) buffer. Blank samples were prepared without the peptide for each concentration. The ThT fluorescence was measured at 446 nm (excitation) and 485 nm (emission). The inhibition percentage of aggregation was calculated by Equation (2), in which IFi and IF0 corresponded to the fluorescence intensities, in the presence and in the absence of the tested compound, subtracted of the fluorescence intensities due to the respective blanks.
(§5) The reported values were obtained as the mean ± SEM of duplicate of three different experiments.

The target of data set [1] is T1, AChE (type VI-S, from electric eel) (Electrophorus electricus, UniProt O42275).
T1 construct: purchased type VI-S
T1 sequence (O42275 24-633): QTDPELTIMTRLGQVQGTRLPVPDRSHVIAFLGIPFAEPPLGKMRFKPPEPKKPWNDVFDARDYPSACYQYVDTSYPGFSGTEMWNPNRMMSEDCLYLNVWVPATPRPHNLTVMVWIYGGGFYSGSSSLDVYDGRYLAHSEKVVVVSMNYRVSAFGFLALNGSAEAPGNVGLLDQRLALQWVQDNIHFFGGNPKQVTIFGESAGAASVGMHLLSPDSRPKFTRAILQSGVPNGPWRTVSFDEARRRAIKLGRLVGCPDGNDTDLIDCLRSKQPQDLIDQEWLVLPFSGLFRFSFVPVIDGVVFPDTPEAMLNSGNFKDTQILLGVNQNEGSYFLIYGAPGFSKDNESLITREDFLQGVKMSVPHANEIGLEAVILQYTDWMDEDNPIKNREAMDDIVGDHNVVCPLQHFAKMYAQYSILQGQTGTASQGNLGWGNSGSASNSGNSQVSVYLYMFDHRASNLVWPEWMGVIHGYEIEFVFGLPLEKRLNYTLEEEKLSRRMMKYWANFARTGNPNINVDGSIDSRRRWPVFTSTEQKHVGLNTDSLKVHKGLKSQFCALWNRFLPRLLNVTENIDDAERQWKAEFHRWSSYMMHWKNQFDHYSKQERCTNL
The data set can be described thus: AChE inhibition, adaptation of Ellman's method. Format: biochemical. The following applies: means of three independent experiments ± SD, read-out: TcAChE Inhibition IC50. As to the method: The inhibition of AChE by the DNP-BIM hybrids herein studied was assayed by using a variation of Ellman´s test and the IC50 values obtained are included in Table 2. […]. An adaptation of the Ellman´s method, previously described, was used to measure the acetylcholinesterase inhibitory activity. The assay solution contained 374 µL of 4-(2-hydroxyethyl)-1-piperazineethanesulfonic acid (HEPES) buffer (50 mM, pH 8.0), 476 µL of 5,5’-dithiobis-(2-nitrobenzoic acid) (DTNB, 3 mM), a variable volume (10–50 µL) of the stock solution of each compound in methanol (1 mg/mL), 25 µL of AChE (type VI-S, from electric eel) stock solution, and the necessary amount of methanol to obtain 0.925 mL of sample mixture in a 1 mL cuvette. The samples were incubated for 15 min and then 75 µL of acetylthiocholine iodide (AChI) solution (16 mM) was added. The reaction was monitored for 5 min at 405 nm. Assays were run with a blank containing all the components except AChE, which was replaced by HEPES buffer. The rates of the reaction were calculated as well as the enzyme activity. A control reaction was carried out using methanol as a sample solution and it was considered as 100% activity.
The inhibition curves were obtained by plotting the percentage of enzymatic inhibition versus inhibitor concentration and a calibration curve was got from which the linear regression parameters were obtained.

The target in the next data set is Aβ1–42 (Homo sapiens, UniProt P05067). The data set can be described thus: Inhibition of self-mediated Aβ1–42 aggregation (thioflavin T fluorescence). The format is biochemical. To be noted: Aβ1–42 40 μM, 24 h, 37 °C, read-out: Aβ1–42 Aggregation Inhibition, Self-Induced; for inhibition at 40 µM: inhibitor 40 µM. As to the method: as §1, §2, §3, §4, §5
Chain of Aβ1–42 (P05067 672-713): as the sequence (P05067 672-713) above
For data set [2] the following is noted: cited from earlier work.
A short description of data set [3]: Cu(II) chelation by potentiometry. Format: physicochemical. The following applies: for pH at which metal complexation starts, Cu(II): formation of MHL species, CL = 6.7 × 10^−4 M, 1:2 M(II)/L; for pCu (pM = −log[M]): pH 7.4, CL/CM = 10, CM = 10^−6 M; for Kd: pH 7.4, read-out: conditional dissociation constant (K´d) for the copper complex. The text has this:
(§6) The metal chelating ability of hybrids 7 and 12, due to the BIM bidentate unity with (N,O) coordination mode, was studied by potentiometry. Figure 3A,B show a change in the deprotonation profile of the ligand titration curves due to the presence of the metal ions. In fact, the curves for the Cu(II)/L systems lie well below that of the ligand, while for the Zn(II)/L systems stay under for a > −1 (compound 7) or a > 0 (compound 12), thus supporting the formation of 1:1 and 1:2 M/L ratio complexes with the deprotonated and mono-protonated forms of the ligand and with relative metal dependent stability order (Cu > Zn). Table 1 contains the equilibrium models obtained from the fitting analysis of the potentiometric curves by program Hyperquad. In these equilibrium models, which the coordination core of the compounds integrates the bidentate (N,O) BIM moiety, MHL and MH2L2 correspond to species with the ligand containing one protonated nitrogen atom at the piperazine moiety, ML and ML2 correspond to complexes involving the completely deprotonated form of the ligand while MH-1L2 are mixed ligand-hydroxo metal complexes.
(§7) Solutions: the aqueous copper (CuCl2, 0.015 M) and zinc (ZnCl2, 0.0156 M) stock solutions for potentiometric equilibrium studies were prepared from 1000 ppm standards (Titrisol) and their metal content was evaluated by atomic absorption. The titrant solution (0.1 M KOH) was obtained from a carbonate-free commercial concentrate (Titrisol) and standardized by potentiometric titration with potassium hydrogen phthalate. The titrant solution was discarded whenever the percentage of carbonate (Gran’s method) was about 0.5% of the total amount of base.
(§8) Measurements: compounds 7 and 12 were titrated in 50% (w/w) DMSO/H2O medium, at T = 25.0 ± 0.1 °C and ionic strength (I) 0.1 M KCl, using 0.1 M KOH as titrant. Both glass and Ag/AgCl reference electrodes were previously conditioned in DMSO/H2O mixtures with increasing amounts of DMSO and the response of the glass electrode was controlled by strong acid–strong base (HCl/KOH) calibrations with the determination of the Nernst parameters by Gran’s method. […] All titrations were performed in duplicate and under the stated experimental conditions the pKw value (13.6) was determined and subsequently used in the computations. The stepwise protonation constant of the ligand, Ki = [HiL]/([Hi–1L][H]), and the overall metal–complex stability constants, βMmHhLl = [MmHhLl]/([M]^m[H]^h[L]^l), were calculated by fitting the potentiometric titration data with Hyperquad 2008 [26]. The metal hydrolysis constants were determined under the defined experimental conditions (I = 0.1 M KCl, 50% w/w DMSO/H2O, T = 25.0 ± 0.1 °C) and the following values of stability constants were included in the fitting of experimental data towards the equilibrium models related to the Cu^2+/L and Zn^2+/L systems: log βCu2H−2 = −9.99; log βZnH−2 = −14.79, log βZnH−3 = −23.48. Species distribution curves were plotted with the Hyss program.

Data set [4] can be described thus: Zn(II) chelation by potentiometry. The format is physicochemical. To be noted: for pH at which metal complexation starts, Zn(II): formation of MHL species, CL = 6.7 × 10^−4 M, 1:2 M(II)/L; for pZn (pM = −log[M]): pH 7.4, CL/CM = 10, CM = 10^−6 M.
From the text: as §6, §7, §8

The mark [5] stands for this setting: global formation constant, 50% w/w DMSO/water, I = 0.1 M KCl, 25.0 °C.

For `O=C(NCCN1CCN(Cc2ccccc2)CC1)c1ccc2[nH]c(-c3cc(F)ccc3O)nc2c1` [Compound 8, N-(2-(4-Benzylpiperazin-1-yl)ethyl)-2-(2-hydroxy-5-fluorophenyl)-1H-benzo[d]imidazole-5-carboxamide], the inhibition (commonly the drop in the measured response relative to a control, in per cent) at 40 µM against Aβ1–42 with Cu(II) was 55.2%; on Aβ1–42, 50.6%. In data set [1], the IC50 (in general, the midpoint of a concentration-inhibition curve) is 4.3 ± 0.3 µM.

With `c1ccncc1` [pyridine], the “log K (protonation constant)” value in data set [2] (in water) was 5.24.

For `O=C(NCC1CCN(Cc2ccccc2)CC1)c1ccc2[nH]c(-c3cc(F)ccc3O)nc2c1` [Compound 6, N-((1-Benzylpiperidin-4-yl)methyl)-2-(2-hydroxy-5-fluorophenyl)-1H-benzo[d]imidazole-5-carboxamide], the inhibition at 40 µM against Aβ1–42 with Cu(II) came to 61%; at Aβ1–42, 51.2%. In addition, the half-inhibitory concentration (IC50) in data set [1] came to 1.67 ± 0.05 µM.

As for `O=C(NCC1CCCN(Cc2ccccc2)C1)c1ccc2nc(-c3ccccc3O)[nH]c2c1` (stereo not drawn) [Compound 3, N-((1-Benzylpiperidin-3-yl)methyl)-2-(2-hydroxyphenyl)-1H-benzo[d]imidazole-6-carboxamide], the figures for the inhibition at 40 µM against Aβ1–42 with Cu(II) and on Aβ1–42 were 81.8% and 71.4%, respectively. For the same molecule, in data set [1], the IC50 turned out to be 5 ± 0.5 µM.

For `O=C(NCCN1CCN(Cc2ccccc2[N+](=O)[O-])CC1)c1ccc2nc(-c3ccccc3O)[nH]c2c1` [Compound 11, 2-(2-Hydroxyphenyl)-N-(2-(4-(2-nitrobenzyl)piperazin-1-yl)ethyl)-1H-benzo[d]imidazole-6-carboxamide], the inhibition at 40 µM against Aβ1–42 with Cu(II) was found to be 43.5%; at Aβ1–42, 22.7%. Also, the IC50 in data set [1] turned out to be 20 ± 1 µM.

The molecule `O=C(NCCN1CCN(Cc2ccccn2)CC1)c1ccc2nc(-c3ccccc3O)[nH]c2c1` [Compound 12, 2-(2-Hydroxyphenyl)-N-(2-(4-(pyridin-2-ylmethyl)piperazin-1-yl)ethyl)-1H-benzo[d]imidazole-6-carboxamide] yielded an inhibition at 40 µM against Aβ1–42 with Cu(II) of 44.4%. Further, in data set [3], the “pH at which metal complexation starts, Cu(II)” value is reported as “around 2”; the “pCu (pM = −log[M])” value is on record as 10.4; the Kd worked out at 0.000365 µM. Further, in data set [3] (setting [5]), the “log βCumHhLl (1–12), CuH-1L2” value is on record as 7.88(7); the “log βCumHhLl (101), CuL” value is 11.18(5); the “log βCumHhLl (102), CuL2” value is reported as 17.14(7); the “log βCumHhLl (111), CuHL” value is 16.26(3). Besides, in data set [4], the “pH at which metal complexation starts, Zn(II)” value is 3.5–4 and the “pZn (pM = −log[M])” value is recorded as 6.3. Besides, in data set [4] (setting [5]), the “log βZnmHhLl (1–12), ZnH-1L2” value is 2.07(7); the “log βZnmHhLl (101), ZnL” value was 6.26(5); the “log βZnmHhLl (102), ZnL2” value is on record as 10.54(5); the “log βZnmHhLl (111), ZnHL” value was 12.58(4). The IC50 in data set [1] is greater than 100 µM. The inhibition at 40 µM on Aβ1–42 was 30.1%.

As for `O=[N+]([O-])c1ccc(O)cc1` [4-nitrophenol], in data set [2] (standard group), the “log K (protonation constant)” value was 7.15.

Regarding `c1c[nH]cn1` [imidazole], the “log K (protonation constant)” value in data set [2] (standard group) is recorded as 6.95.

As to `O=C(NCCN1CCN(Cc2ccccc2)CC1)c1ccc2[nH]c(-c3cc([N+](=O)[O-])ccc3O)nc2c1` [Compound 7, N-(2-(4-Benzylpiperazin-1-yl)ethyl)-2-(2-hydroxy-5-nitrophenyl)-1H-benzo[d]imidazole-5-carboxamide], at Aβ1–42 with Cu(II), the inhibition at 40 µM stood at 71.4%. In addition, in data set [3], the “pH at which metal complexation starts, Cu(II)” value is reported as “around 2”; the “pCu (pM = −log[M])” value was determined as 10.9; the Kd was 0.08 µM. Also, in data set [3] (setting [5]), the “log βCumHhLl (1–12), CuH-1L2” value is 7.30(9); the “log βCumHhLl (102), CuL2” value is given as 15.27(8); the “log βCumHhLl (111), CuHL” value is listed as 14.23(5); the “log βCumHhLl (122), CuH2L2” value is 26.90(7). In addition, in data set [4], the “pH at which metal complexation starts, Zn(II)” value is 3.5–4 and the “pZn (pM = −log[M])” value was found to be 6.5. In addition, in data set [4] (setting [5]), the “log βZnmHhLl (101), ZnL” value is 4.98(8); the “log βZnmHhLl (102), ZnL2” value is on record as 10.22(8); the “log βZnmHhLl (111), ZnHL” value was 10.40(8); the “log βZnmHhLl (122), ZnH2L2” value is reported as 21.92(7). The IC50 in data set [1] was determined as 21 ± 3 µM. At Aβ1–42, the inhibition at 40 µM came to 57.6%.

In the case of `Oc1ccccc1` [phenol], the “log K (protonation constant)” value in data set [2] (standard group) was 9.98.

Take `O=C(NCC1CCCCN1Cc1ccccc1)c1ccc2nc(-c3ccccc3O)[nH]c2c1` (stereo not drawn) [Compound 4, N-((1-Benzylpiperidin-2-yl)methyl)-2-(2-hydroxyphenyl)-1H-benzo[d]imidazole-6-carboxamide]: the inhibition at 20 µM against Aβ1–42 with Cu(II) (inhibitor 20 µM) stood at 55.9%; at Aβ1–42 (inhibitor 20 µM) it was 47.6%. Further, in data set [1], the IC50 was found to be 14 ± 1 µM.
